Experimental data from patent US10532979B2, “Phenyldifluoromethyl-substituted prolinamide compound” (ASTELLAS PHARMA INC., priority 2017, dated 2020).
Counter-ions that a name gives are not always drawn. Each block holds one molecule with its values, some of them ahead of it.

How the values were obtained:
human cathepsin S = molecular target: T1, human cathepsin S (Homo sapiens, UniProt P25774); experiment: Measurement of in vitro human cathepsin S inhibitory activity; format: biochemical; details: substrate VVR-AMC 40 μM, pH 4.5, 37° C.; read-out: Dat1: IC50 value of human cathepsin S inhibitory activity
T1 construct: purchased R&D 1183-CY-010
Procedure: Test Example 1: Measurement of In Vitro Human Cathepsin S Inhibitory Activity
To a 96-well plate, 5 μL of human cathepsin S enzyme (R&D 1183-CY-010) was added so as to be 20 ng/well. Next, with assay buffer (50 mM sodium acetate, 250 mM sodium chloride, and 5 mM dithiothreitol (DTT), pH=4.5), a test compound (10 mM DMSO solution) was diluted 10-fold dilution series with 5 steps so that a final concentration becomes 0.1 nM to 1 μM or diluted 3-fold dilution series with 7 steps so that a final concentration becomes 0.01 nM to 10 nM, and 10 μL thereof was added to the well (final DMSO concentration was 0.1%), followed by addition of 25 μL of synthetic substrate VVR-AMC (Peptide Institute 3211-V) so that a final concentration becomes 40 μM, and thereby an enzymatic reaction was initiated. The fluorescence intensity (excitation wavelength: 380 nm, fluorescence wavelength: 460 nm) was measured at 37° C. for 5 to 10 minutes from the start of the reaction using a spectrofluorophotometer (SPECTRAMAX GEMINI, Molecular Devices), and a reaction rate when linearity was recognized (5 minutes) was obtained for each concentration of the test compound. An inhibition rate at each concentration was defined by suppressing a reaction rate at the time of non-addition of an enzyme without adding the test compound and a reaction rate at the time of addition of an enzyme without adding the test compound by 100% inhibition and 0% inhibition, respectively, and therefore an IC50 value was calculated by a sigmoid Emax nonlinear regression method. In the table, Ex represents Example compound No., and Dat1 represents the IC50 value (nM) of human cathepsin S inhibitory activity.

[1] = system: MHC class II expression in B cells of peripheral blood; experiment: Ex vivo MHC class II expression inhibitory effect using mouse peripheral blood after oral administration; format: in vivo; details: male C57BL/6J mice, 0.3 mg/kg oral, peripheral blood after 6 hours, LPS 100 μg/mL 15 hours
Procedure: Test Example 3: Evaluation of Ex Vivo MHC Class II Expression Inhibitory Effect Using Mouse Peripheral Blood
The expression inhibitory effect of MHC class II molecules was evaluated in an ex vivo system.
The test compound was orally administered to male C57BL/6J mice (Charles River Laboratories Japan, Inc.), and an inhibition effect with respect to an increase in the expression of MHC class II in B cells of peripheral blood after oral administration was examined. That is, 10 mL/kg of the test compound dissolved in a vehicle [30% propylene glycol solvent {propylene glycol:hydrogenated castor oil (HCO40): Tween 80=4:2:1}/HCl (2 equivalents to the test compound)/water] was orally administered to male C57BL/6J mice (dose: 0.3 mg/kg, 4 subjects per group), and peripheral blood was recovered after 6 hours. To 90 μL of the peripheral blood, 10 μL of PBS or 10 μL (final concentration 100 μg/mL) of LPS (Sigma L4005) was added, and the culturing was carried out at 37° C. under 5% CO2 for 15 hours. […] After washing, using the flow cytometry system (FACSCanto II, BD BIOSCIENCES), an expression level of MHC class II on a surface of B220 positive B cells was measured with an average fluorescence intensity of FITC (hereinafter referred to as MFI) as an index. […]

[2] = system: MHC class II expression in B cells; experiment: Inhibitory effect on in vitro MHC class II expression using mouse splenocytes (LPS-stimulated, B220 positive B cells); format: cell-based; details: B-cell, C57BL/6J mouse splenocytes, LPS 2 μg/mL, 48 hours, YAe antibody, read-out: Dat2: IC50 value, inhibition of MHC class II expression
Text: Test Example 2: Evaluation of Inhibitory Effect on In Vitro MHC Class II Expression Using Mouse Splenocytes (Cell Evaluation System)
In antigen-presenting cells, inhibition of cathepsin S suppresses expression of MHC class II molecules. As a result, suppression of antigen presentation to CD4-positive T cells causes a deterioration in the immune response to foreign antigens. In regard to an increase in MHC class II expression in B cells, the inhibitory effect of the compound of the formula (I) was examined.
Splenocytes collected from male C57BL/6J mice (Charles River Laboratories Japan, Inc.) were seeded in a 96-well plate by 1×10^5 cells/well. With RPMI 1640 medium (containing 10% fetal bovine serum (FCS), 5×10^−5 M 2-mercaptoethanol, 50 IU/mL penicillin, and 50 μg/mL streptomycin), 10 mM DMSO solution of the test compound was diluted 5-fold dilution series with 9 steps so that a final concentration becomes […] to 10 μM, or diluted 5-fold dilution series with 12 steps so that a final concentration becomes 0.205 pM to 10 μM (final DMSO concentration is 0.1%), and added. At the same time, LPS (Sigma L4005) was added to the well so that the final concentration becomes 2 μg/mL, and the cells were cultured at 37° C. under 5% CO2 for 48 hours. After culturing, the cells were stained with biotin-labeled YAe antibody (EBIOSCIENCE 13-5741-85) at 4° C. for 20 minutes, and washed. The cells were further stained with FITC fluorochrome labeled anti-mouse B220 antibody (BD BIOSCIENCES 553088) and PE fluorochrome labeled streptavidin (BD BIOSCIENCES 554061) for 20 minutes at 4° C. Therefore, an expression level (fluorescence intensity of YAe-biotin/streptavidin-PE) of MHC class II bound to the Ea peptide in B220 positive B cells was measured by using a flow cytometry system (Guava EasyCyte Plus System, Millipore). An inhibition rate at each concentration was defined by suppressing a value at the time of non-stimulation of LPS without addition of the test compound and a value at the time of stimulation of LPS without addition of the test compound by 100% inhibition and 0% inhibition, respectively, and therefore an IC50 value was calculated by the sigmoid Emax nonlinear regression method. In the table, Ex represents Example compound No., and Dat2 represents the IC50 value (nM).

[3] = system: NZB/W F1 mice (SLE-like disease); experiment: Inhibitory effect on SLE-like disease onset in spontaneous onset model using NZB/W F1 mice; format: in vivo, mouse; details: NZB/W F1 female mice
Text: Test Example 4: Evaluation of Inhibitory Effect on SLE-Like Disease Onset in Spontaneous Onset Model Using NZB/W F1 Mice
NZB/W F1 mice (Japan SLC, Inc.) is used as a model of SLE spontaneously developing a disease condition close to humans (“JAMA”, 1966, Vol. 195, p. 145; “Advances in Immunology”, 1985, Vol. 37, p. 269-390; “Journal of Biomedicine and Biotechnology”, 2011, Vol. 2011, 271694).
NZB/W F1 female mice were divided into groups according to urine protein values (creatinine corrected value), anti-double stranded DNA (dsDNA) antibody value (IgG) in plasma, an expression level of MHC class II in B cells of peripheral blood, and body weight at age of 19 weeks. At this time, individuals with urine protein values (creatinine corrected value) of 3 or more were excluded. From age of 20 weeks, the test compound was orally administered twice a day, and then urine collection and blood collection were performed over time. The change in urine protein value and anti-dsDNA antibody value over time were evaluated.
In the above test, anti-dsDNA IgG antibody value in plasma generated in association with SLE-like disease was measured by ELISA method (ALPHA DIAGNOSTIC 5120). In geometric mean values of the antibody value at age of 28 weeks and age of 32 weeks of each individual, a geometric mean value of 10 vehicle-administered subjects was 216662 U/mL, whereas a geometric mean value of 10 subjects administered with 1 mg/kg b.i.d. of the compound of Example 2 was 26827 U/mL, which is a low value having a significant difference (P value=0.0009, Dunnett's multiple comparison). In addition, urine protein values (creatinine corrected value) at age of 40 weeks were measured. A geometric mean value of the 10 vehicle-administered subjects was 13.0, whereas a geometric mean value of the 10 subjects administered with 1 mg/kg b.i.d. of the compound of Example 2 was 0.7, which is a low value having a significant difference (P value=0.0005, Dunnett's multiple comparison).

T1 sequence (P25774 115-331): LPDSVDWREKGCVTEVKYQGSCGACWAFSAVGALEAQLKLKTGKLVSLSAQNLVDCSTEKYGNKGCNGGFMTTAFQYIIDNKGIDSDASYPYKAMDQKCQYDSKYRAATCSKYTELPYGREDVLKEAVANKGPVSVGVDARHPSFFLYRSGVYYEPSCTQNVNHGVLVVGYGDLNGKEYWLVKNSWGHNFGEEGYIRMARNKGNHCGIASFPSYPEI

IC50 (human cathepsin S): 1 nM
IC50 [2]: 0.62 nM
Compound: CN1CCN(Cc2ccc(C(F)(F)[C@@H]3C[C@@H](C(=O)NC4(C#N)CC4)N(C(=O)C4(C(F)(F)F)CC4)C3)c(C(F)(F)F)c2)CC1 [Example 4, (4R)—N-(1-cyanocyclopropyl)-4-(difluoro{4-[(4-methylpiperazin-1-yl)methyl]-2-(trifluoromethyl)phenyl}methyl)-1-{[1-(trifluoromethyl)cyclopropyl]carbonyl}-L-prolinamide]

IC50 (human cathepsin S): 1 nM
IC50 [2]: 0.37 nM
Compound: CCN1CCN(Cc2ccc(C(F)(F)[C@@H]3C[C@@H](C(=O)NC4(C#N)CC4)N(C(=O)C4(C(F)(F)F)CC4)C3)c(C(F)(F)F)c2)CC1 [Example 13]

Continued, molecule first:

Compound: CN1CCN(Cc2ccc(C(F)(F)[C@@H]3C[C@@H](C(=O)NC4(C#N)CC4)N(C(=O)C4(C)CC4)C3)c(C(F)(F)F)c2)CC1 (as salt: succinate) [Example 18, (4R)—N-(1-cyanocyclopropyl)-4-(difluoro{4-[(4-methylpiperazin-1-yl)methyl]-2-(trifluoromethyl)phenyl}methyl)-1-[(1-methylcyclopropyl)carbonyl]-L-prolinamide]
melting point: 134.3 °C

Compound: CN1CCN(Cc2ccc(C(F)(F)C3C[C@@H](C(=O)NC4(C#N)CC4)N(C(=O)C4(C)CC4)C3)c(C(F)(F)F)c2)CC1 (mixture of isomers) [Example 8, N-(1-cyanocyclopropyl)-4-(difluoro{4-[(4-methylpiperazin-1-yl)methyl]-2-(trifluoromethyl)phenyl}methyl)-1-[(1-methylcyclopropyl)carbonyl]-L-prolinamide dihydrochloride]
IC50 (human cathepsin S): 0.88 nM
inhibition rate of ΔMFI (increase in expression of MHC class II on B220 positive B cells) [1]: 41%
IC50 [2]: 0.59 nM

Compound: CN1CCN(Cc2ccc(C(F)(F)[C@@H]3C[C@@H](C(=O)NC4(C#N)CC4)N(C(=O)C4(C)CC4)C3)c(C(F)(F)F)c2)CC1 [Example 2, (4R)—N-(1-cyanocyclopropyl)-4-(difluoro{4-[(4-methylpiperazin-1-yl)methyl]-2-(trifluoromethyl)phenyl}methyl)-1-[(1-methylcyclopropyl)carbonyl]-L-prolinamide dihydrochloride]
IC50 (human cathepsin S): 0.81 nM
effect on SLE-like disease onset ([3]; 1 mg/kg b.i.d. oral): has the effect of suppressing the SLE-like disease onset
anti-dsDNA IgG antibody value in plasma, geometric mean value ([3]; 1 mg/kg b.i.d. oral from age of 20 weeks, age of 28 weeks and 32 weeks, 10 subjects, vehicle 216662 U/mL, P value=0.0009): 26827 U/mL
urine protein value (creatinine corrected value), geometric mean value ([3]; 1 mg/kg b.i.d. oral, age of 40 weeks, 10 subjects, vehicle 13.0, P value=0.0005): 0.7
IC50 [2]: 0.65 nM

Compound: CCN1CCN(Cc2ccc(C(F)(F)[C@@H]3C[C@@H](C(=O)NC4(C#N)CC4)N(C(=O)C4(C)CC4)C3)c(C(F)(F)F)c2)CC1 [Example 14]
IC50 (human cathepsin S): 0.43 nM
IC50 [2]: 0.6 nM
